# Assay results as given in patent US20240219394A1, “METHOD FOR MEASURING RESPONSE OF OLFACTORY RECEPTOR TO SUBSTANCE” (AJINOMOTO CO., INC., priority 2021, published 2024).
# Tested on: control cells (HEK293T cells transfected with the empty vector Rho-pME18S)
# Assay: Luciferase assay: response of control cells to adenosine
# Assay type: cell-based, human
# Conditions: FIG. 1
# Procedure: HEK293T cells expressing each of the 352 kinds of olfactory receptors were prepared according to the following procedure. […] The gene mixture and transfection reagent mixture were mixed, dispensed into each well of a poly-D-lysine-coated 384-well plate in a volume of 12.5 μL, and allowed to stand for 15 minutes in a clean bench. The HEK293T cells inoculated in 10-cm petri dishes on the previous day (2.5×10^6 cells/10 cm petri dish) were prepared at a density of 1.2×10^5 cells/mL, inoculated into each well of the 384-well plate in a volume of 25 μL, and cultured overnight in an incubator maintained at 37° C. and 5% C02. […]
# The 352 olfactory receptors expressed in HEK293T cells couple with Golf to activate adenylate cyclase, thereby increasing the amount of intracellular cAMP. In this example, responses of the olfactory receptors to the test substances were measured by using a luciferase reporter gene assay, in which increase in intracellular cAMP amount is monitored as an increase in firefly luciferase-derived luminescence. […] In addition, luminescence value derived from Renilla luciferase was used as an internal standard to correct errors due to differences of gene transfer efficiency and cell number among the wells. […]
smiles,measurement,value
Nc1ncnc2c1ncn2[C@@H]1O[C@H](CO)[C@@H](O)[C@H]1O [adenosine],"Response of control cells to adenosine (Luc/hRluc value, increase in cAMP)",caused increase in cAMP
